Results from ChEMBL document CHEMBL3217491, “Design, synthesis and biological evaluation of imidazopyridine/pyrimidine-chalcone derivatives as potential anticancer agents” (2010).
Active and inactive are the calls of the source. No cut-off for these calls is given here.

Key:
[1] = tested on: MCF7; assay: Cell cycle arrest in human MCF7 cells assessed as accumulation at G2/M phase at 4 uM after 24 hrs by propidium iodide staining-based flow cytometry (reference value: 15.79%); format: functional
[2] = Growth inhibition of human UACC62 cells after 48 hrs by SRB assay; format: functional; details: UACC-62, 48 h
[3] = tested on: U-251; assay: Growth inhibition of human U251 cells after 48 hrs by SRB assay; format: functional; details: U-251, 48 h
[4] = tested on: 786-0; assay: Growth inhibition of human 786-0 cells after 48 hrs by SRB assay; format: functional; details: 786-0, 48 h
[5] = tested on: NCI-H23; assay: Growth inhibition of human NCI-H23 cells after 48 hrs by SRB assay; format: functional; details: NCI-H23, 48 h
[6] = tested on: K562; assay: Growth inhibition of human K562 cells after 48 hrs by SRB assay; format: functional; details: K562, 48 h
[7] = tested on: M14; assay: Growth inhibition of human M14 cells after 48 hrs by SRB assay; format: functional; details: M14, 48 h
[8] = Growth inhibition of human UO31 cells after 48 hrs by SRB assay; format: functional; details: UO-31, 48 h
[9] = tested on: SK-MEL-5; assay: Growth inhibition of human SK-MEL-5 cells after 48 hrs by SRB assay; format: functional; details: SK-MEL-5, 48 h
[10] = tested on: NCI-H322M; assay: Growth inhibition of human NCI-H322M cells after 48 hrs by SRB assay; format: functional
[11] = Growth inhibition of human HCT15 cells after 48 hrs by SRB assay; format: functional; details: HCT-15, 48 h
[12] = Growth inhibition of human HOP92 cells after 48 hrs by SRB assay; format: functional; details: HOP-92, 48 h
[13] = tested on: SF-268; assay: Growth inhibition of human SF268 cells after 48 hrs by SRB assay; format: functional; details: SF-268, 48 h
[14] = tested on: IGROV-1; assay: Growth inhibition of human IGROV1 cells after 48 hrs by SRB assay; format: functional; details: IGROV-1, 48 h
[15] = tested on: MCF7; assay: Growth inhibition of human MCF7 cells after 48 hrs by SRB assay; format: functional; details: MCF7, 48 h
[16] = tested on: MCF7; assay: Growth inhibition of human MCF7 cells assessed as cell viability at 4 uM after 24 hrs by MTT assay; format: functional, cell-based
[17] = tested on: NCI-H226; assay: Growth inhibition of human NCI-H226 cells after 48 hrs by SRB assay; format: functional; details: NCI-H226, 48 h
[18] = Growth inhibition of human MOLT4 cells after 48 hrs by SRB assay; format: functional; details: MOLT-4, 48 h
[19] = Growth inhibition of human BT549 cells after 48 hrs by SRB assay; format: functional; details: BT-549, 48 h
[20] = tested on: HCT-116; assay: Growth inhibition of human HCT116 cells after 48 hrs by SRB assay; format: functional; details: HCT-116, 48 h
[21] = Growth inhibition of human OVCAR8 cells after 48 hrs by SRB assay; format: functional; details: OVCAR-8, 48 h
[22] = tested on: MDA-MB-468; assay: Growth inhibition of human MDA-MB-468 cells after 48 hrs by SRB assay; format: functional; details: MDA-MB-468, 48 h
[23] = tested on: A498; assay: Growth inhibition of human A498 cells after 48 hrs by SRB assay; format: functional; details: A498, 48 h
[24] = Growth inhibition of human EKVX cells after 48 hrs by SRB assay; format: functional
[25] = tested on: NCI-H522; assay: Growth inhibition of human NCI-H522 cells after 48 hrs by SRB assay; format: functional; details: NCI-H522, 48 h
[26] = Growth inhibition of human SF539 cells after 48 hrs by SRB assay; format: functional; details: SF-539, 48 h
[27] = tested on: HL-60(TB); assay: Growth inhibition of human HL-60(TB) cells after 48 hrs by SRB assay; format: functional; details: HL-60, 48 h
[28] = tested on: SK-MEL-2; assay: Growth inhibition of human SK-MEL-2 cells after 48 hrs by SRB assay; format: functional; details: SK-MEL-2, 48 h
[29] = Growth inhibition of human NCI-ADR-RES cells after 48 hrs by SRB assay; format: functional
[30] = tested on: SK-OV-3; assay: Growth inhibition of human SKOV3 cells after 48 hrs by SRB assay; format: functional; details: SK-OV-3, 48 h
[31] = tested on: A549; assay: Growth inhibition of human A549 cells after 48 hrs by SRB assay; format: functional; details: A549, 48 h
[32] = tested on: COLO 205; assay: Growth inhibition of human COLO205 cells after 48 hrs by SRB assay; format: functional; details: COLO 205, 48 h
[33] = tested on: CCRF-CEM; assay: Growth inhibition of human CCRF-CEM cells after 48 hrs by SRB assay; format: functional
[34] = tested on: SN12C; assay: Growth inhibition of human SN12C cells after 48 hrs by SRB assay; format: functional
[35] = Growth inhibition of human LOXIMVI cells after 48 hrs by SRB assay; format: functional; details: LOX IMVI
[36] = tested on: MCF7; assay: Cell cycle arrest in human MCF7 cells assessed as accumulation at G0/G1 phase at 4 uM after 24 hrs by propidium iodide staining-based flow cytometry (reference value: 64.04%); format: functional
[37] = tested on: MDA-MB-435; assay: Growth inhibition of human MDA-MB-435 cells after 48 hrs by SRB assay; format: functional; details: MDA-MB-435, 48 h
[38] = tested on: PC-3; assay: Growth inhibition of human PC3 cells after 48 hrs by SRB assay; format: functional; details: PC-3, 48 h
[39] = tested on: RPMI-8226; assay: Growth inhibition of human RPMI8226 cells after 48 hrs by SRB assay; format: functional; details: RPMI-8226, 48 h
[40] = tested on: MDA-MB-231; assay: Growth inhibition of human MDA-MB-231 cells after 48 hrs by SRB assay; format: functional; details: MDA-MB-231, 48 h
[41] = tested on: TK-10; assay: Growth inhibition of human TK10 cells after 48 hrs by SRB assay; format: functional; details: TK-10, 48 h
[42] = tested on: HOP-62; assay: Growth inhibition of human HOP62 cells after 48 hrs by SRB assay; format: functional; details: HOP-62, 48 h
[43] = Growth inhibition of human OVCAR5 cells after 48 hrs by SRB assay; format: functional; details: OVCAR-5, 48 h
[44] = Growth inhibition of human OVCAR4 cells after 48 hrs by SRB assay; format: functional; details: OVCAR-4, 48 h
[45] = tested on: CAKI-1; assay: Growth inhibition of human Caki1 cells after 48 hrs by SRB assay; format: functional; details: CAKI-1, 48 h
[46] = tested on: Malme-3M; assay: Growth inhibition of human MALME-3M cells after 48 hrs by SRB assay; format: functional
[47] = tested on: T47D; assay: Growth inhibition of human T47D cells after 48 hrs by SRB assay; format: functional
[48] = tested on: DU-145; assay: Growth inhibition of human DU145 cells after 48 hrs by SRB assay; format: functional; details: DU-145, 48 h
[49] = Growth inhibition of human SF295 cells after 48 hrs by SRB assay; format: functional; details: SF-295, 48 h
[50] = tested on: MCF7; assay: Cell cycle arrest in human MCF7 cells assessed as accumulation at S phase at 4 uM after 24 hrs by propidium iodide staining-based flow cytometry (reference value: 20.17%); format: functional
[51] = Growth inhibition of human UACC257 cells after 48 hrs by SRB assay; format: functional; details: UACC-257, 48 h
[52] = Growth inhibition of human OVCAR3 cells after 48 hrs by SRB assay; format: functional; details: OVCAR-3, 48 h
[53] = Growth inhibition of human HCC2998 cells after 48 hrs by SRB assay; format: functional; details: HCC 2998, 48 h
[54] = tested on: SNB-75; assay: Growth inhibition of human SNB75 cells after 48 hrs by SRB assay; format: functional; details: SNB-75, 48 h
[55] = tested on: SR; assay: Growth inhibition of human SR cells after 48 hrs by SRB assay; format: functional
[56] = tested on: SNB-19; assay: Growth inhibition of human SNB19 cells after 48 hrs by SRB assay; format: functional; details: SNB-19, 48 h
[57] = tested on: KM12; assay: Growth inhibition of human KM12 cells after 48 hrs by SRB assay; format: functional; details: KM12, 48 h
[58] = tested on: NCI-H460; assay: Growth inhibition of human NCI-H460 cells after 48 hrs by SRB assay; format: functional; details: NCI-H460, 48 h
[59] = tested on: ACHN; assay: Growth inhibition of human ACHN cells after 48 hrs by SRB assay; format: functional
[60] = tested on: HT-29; assay: Growth inhibition of human HT-29 cells after 48 hrs by SRB assay; format: functional; details: HT-29, 48 h

SMILES: COc1cc(C(=O)/C=C/c2c(-c3cccs3)nc3ccccn23)cc(OC)c1OC
- Activity [1]: 1.11%
- GI50 [2]: 1.61 µM
- GI50 [3]: 1.66 µM
- GI50 [4]: 2.31 µM
- GI50 [5]: 2.2 µM
- GI50 [6]: 1.51 µM
- GI50 [7]: 2.08 µM
- GI50 [8]: 1.07 µM
- GI50 [9]: 1.33 µM
- GI50 [10]: 3.02 µM
- GI50 [11]: 1.6 µM
- GI50 [12]: 0.28 µM
- GI50 [13]: 2.37 µM
- GI50 [14]: 1.89 µM
- GI50 [15]: 1.12 µM
- inhibition [16]: Active
- GI50 [17]: 2.04 µM
- GI50 [18]: 1.77 µM
- GI50 [19]: 1.86 µM
- GI50 [20]: 1.63 µM
- GI50 [21]: 1.68 µM
- GI50 [22]: 1.72 µM
- GI50 [23]: 0.98 µM
- GI50 [24]: 3.12 µM
- GI50 [25]: 1.1 µM
- GI50 [26]: 1.87 µM
- GI50 [27]: 2.01 µM
- GI50 [28]: 2.27 µM
- GI50 [29]: 1.89 µM
- GI50 [30]: 3.01 µM
- GI50 [31]: 2.04 µM
- GI50 [32]: 1.77 µM
- GI50 [33]: 1.66 µM
- GI50 [34]: 2.44 µM
- GI50 [35]: 1.87 µM
- Activity [36]: 92.41%
- GI50 [37]: 2.49 µM
- GI50 [38]: 2.63 µM
- GI50 [39]: 1.34 µM
- GI50 [40]: 3.08 µM
- GI50 [41]: 3.78 µM
- GI50 [42]: 2.88 µM
- GI50 [43]: 2.64 µM
- GI50 [44]: 3.13 µM
- GI50 [45]: 2.31 µM
- GI50 [46]: 3.65 µM
- GI50 [47]: 1.72 µM
- GI50 [48]: 1.9 µM
- GI50 [49]: 2.24 µM
- Activity [50]: 6.48%
- GI50 [51]: 1.88 µM
- GI50 [52]: 2.44 µM
- GI50 [53]: 1.96 µM
- GI50 [54]: 2.68 µM
- GI50 [55]: 1.23 µM
- GI50 [56]: 2.1 µM
- GI50 [57]: 1.32 µM
- GI50 [58]: 1.42 µM
- GI50 [59]: 2.09 µM
- GI50 [60]: 2.09 µM
